Data: US4355104A, “Bacteriolytic proteins” (priority 1980, dated 1982)

Assays:
E. coli [1] = assay: influence of anions on lytic activity of P9 proteins; format: cell-based, Escherichia coli; settings: 0.045 M MES-buffer, pH 6.3
Protocol: The lytic activity of the P9 proteins against E. coli at each stage of the process can be determined turbidimetrically and the total weight of protein measured. For this purpose, one unit of lytic activity is defined as the amount of factor giving 50% reduction of the absorbance of […] (50% lysis) compared to a control. […] A small volume, usually 10 μl, of the sample to be tested is added to 1 ml of bacterial suspension in an ice bath. In the control samples, an equal amount of buffer is substituted. The mixture is incubated (30 minutes at 37° C.) and transferred back to the ice bath during which most of the clearing of the E. coli suspension occurs. Results of such a determination, usually measured within 1 h, are tabulated below in Table 1.
The effects of sulfate or phosphate ions are hardly significant. The presence of acetate and formate buffers during the chromatography sequences until their removal by freeze-drying should be taken into account in interpreting the recovery data for protein P9 B in Table 1.

E. coli [2] = assay: heat stability in boiling water bath, remaining lytic activity; format: physicochemical, Escherichia coli
Text: FIG. 3 is a graph depicting the effect of heat on the lytic activity of lysozyme and P9 proteins. The filled symbols in the figure indicate a pH of 6.4; the open symbols indicate a pH of 3.2. Activity against E. coli is denoted in the figure by triangles; activity against M. Luteus is denoted by squares.
The activity against E. coli (triangles) is compared in FIG. 3 to the activity against M. luteus (squares). The former activity is associated with the P9 proteins and the latter with the lysozyme.

[3] = tested on: Serratia marcescens, Db1108; assay: anti-bacterial specificity, killing time; format: cell-based; settings: time required for killing 90% of the bacteria; 3 x 10^6 cells/ml
Text: (§1) The lysis of E. coli is believed to be due to at least two very similar small and basic proteins designated P9A and P9B. The P9 proteins are active against gram negative bacteria such as E. coli K12 strain D21f2, E. coli K12 strain D21, E. coli K12 strain D31, Enterobacter cloacae, β11, Pseudomonas aeruginosa, OT97, and Serratia marcescens, Db1108 but not S. marcescens Db11. The E. coli K12, strain D31 is a penicillin and streptomycin resistant mutant with a defective lipopolysaccharide. S. marcescens Db11 is a streptomycin resistant mutant derived from a parental strain, pathologic for Drosophila. S. marcescens Db1108 is a spontaneous phage resistant mutant of Db11. The bacterial strains are discussed in Boman, H. G., Nilsson-Faye, I., Paul, K. & Rasmuson, T. (1974) Infect. Immun. 10, 136-145; Monner, D. A., Jonsson, S. & Boman, H. G. (1971) J. Bacteriol. 107, 420-432; and Boman, H. G. & Monner, D. A. (1975) J. Bacteriol. 121, 455-464.
(§2) The anti-bacterial specificity of P9 proteins was determined for gram negative bacteria. Killing time shown in Table 4 is the time required for killing 90% of the bacteria. […] It is also clear that the heptose-less mutant E. coli D21f2 and S. marcescens Db1108 both were more sensitive to P9 proteins than their respective parental strains, D21 and Db11.

[4] = tested on: Serratia marcescens, Db11; assay: anti-bacterial specificity, killing time; format: cell-based; settings: time required for killing 90% of the bacteria; 3 x 10^6 cells/ml
Text: as §1, §2

[5] = tested on: Enterobacter cloacae, β11; assay: anti-bacterial specificity, killing time; format: cell-based; settings: time required for killing 90% of the bacteria; 3 x 10^6 cells/ml
Text: as §1, §2

[6] = tested on: Pseudomonas aeruginosa, OT97; assay: anti-bacterial specificity, killing time; format: cell-based; settings: time required for killing 90% of the bacteria; 4 x 10^6 cells/ml
Text: as §1, §2

[7] = tested on: Escherichia coli K12, D21f2; assay: anti-bacterial specificity, killing time; format: cell-based; settings: time required for killing 90% of the bacteria; 3 x 10^6 cells/ml
Text: as §1, §2

[8] = tested on: Escherichia coli K12, D21; assay: anti-bacterial specificity, killing time; format: cell-based; settings: time required for killing 90% of the bacteria; 4 x 10^6 cells/ml
Text: as §1, §2

E. coli, strain D31 = assay: turbidimetric lytic activity against E. coli; format: cell-based, Escherichia coli; settings: for Specific Lytic Activity: 1 unit = 50% lysis; for specific lytic activity against E. coli compared with immune hemolymph: versus starting material
Text: The lytic activity of the P9 proteins against E. coli at each stage of the process can be determined turbidimetrically and the total weight of protein measured. For this purpose, one unit of lytic activity is defined as the amount of factor giving 50% reduction of the absorbance of […] (50% lysis) compared to a control. Log phase E. coli, strain D31 can be centrifuged and suspended in ice-cold 0.1 M phosphate buffer, pH 6.4, to give a density of 30 units on a Klett-Summerson colorimeter (A570 0.3-0.5). A small volume, usually 10 μl, of the sample to be tested is added to 1 ml of bacterial suspension in an ice bath. In the control samples, an equal amount of buffer is substituted. The mixture is incubated (30 minutes at 37° C.) and transferred back to the ice bath during which most of the clearing of the E. coli suspension occurs. Results of such a determination, usually measured within 1 h, are tabulated below in Table 1.

E. coli D31 = assay: simultaneous decrease of absorbance at 570 nm and viable count; format: cell-based, Escherichia coli; settings: eight units per ml, 1 min
Protocol: For E. coli D31 the effect of P9 proteins can be observed by simultaneously following the decrease in the absorbance at 570 nm and the viable count of E. coli. Eight units of protein P9 B per ml in 1 min gave a reduction of viable count from 10^8 to <10^5 while the absorbance dropped 14%.

[9] = added salt: Ammonium formate, ionic strength 0.15 M
[10] = added salt: None, ionic strength 0.15 M with sodium chloride
[11] = added salt: Sodium acetate, ionic strength 0.15 M
[12] = added salt: Sodium phosphate, ionic strength 0.15 M
[13] = added salt: Sodium sulfate, ionic strength 0.15 M
[14] = fraction after Step 1 of chromatography

Substance	Relative Activity (E. coli [1]; [9])	Relative Activity (E. coli [1]; [10])	Relative Activity (E. coli [1]; [11])	Relative Activity (E. coli [1]; [12])	Relative Activity (E. coli [1]; [13])	heat stability in words (E. coli [2])	Killing Time [3] [min]	Killing Time [4] [min]	Killing Time [5] [min]	Killing Time [6] [min]	Killing Time [7] [min]	Killing Time [8] [min]	Specific Lytic Activity (E. coli, strain D31; after Step 2 and freeze-drying)	Specific Lytic Activity (E. coli, strain D31; [14])	specific lytic activity against E. coli compared with immune hemolymph (E. coli, strain D31)	increase in activity (E. coli [1]; acetate or formate ions, ionic strength 0.15 M with sodium chloride)	drop of absorbance at 570 nm (E. coli D31) [%]	viable count after treatment (E. coli D31; reduction from 10^8)
N-LYS-TRP-LYS-LEU-PHE-LYS-LYS-ILE-GLU-LYS-VAL-GLY-GLN-ASN-ILE-ARG-ASP-GLY- ILE-ILE-LYS-ALA-GLY-PRO-ALA-VAL-ALA-VAL-VAL-GLY-GLN-ALA-THR-C (KWKLFKKIEKVGQNIRDGIIKAGPAVAVVGQAT; printed: LYS-TRP-LYS-LEU-PHE-LYS-LYS-ILE-GLU-LYS-VAL-GLY-GLN-ASN-ILE-ARG-ASP-GLY- ILE-ILE-LYS-ALA-GLY-PRO-ALA-VAL-ALA-VAL-VAL-GLY-GLN-ALA-THR-) [P9 A]	1.3	1.0	0.9	0.8	0.6	heat stable	48	> 120	12	10	< 0.25	0.60	5.6 Units/μg of protein	4.4 Units/μg of protein	substantially greater			
N-LYS-TRP-LYS-VAL-(MET)-ILE-(PHE)-LYS-LYS-ILE-(PHE)-GLU-LYS- -GLY-ARG-ASN-ILE-(PHE)-ARG-ASN-(LYS)-GLY- [P9 B]	4.5	1.0	4.1	1.3	1.2	heat stable	115	> 120	15	5	< 0.25	1	1.9 Units/μg of protein	5.3 Units/μg of protein	substantially greater	four-fold increase	14	< 10^5
